# Experimental data published in ChEMBL document CHEMBL4825732, “Discovery of the Selective Protein Kinase C-θ Kinase Inhibitor, CC-90005” (J Med Chem, 2021).
# How the values were obtained:
# [1] = Apparent permeability across apical to basolateral side in human Caco2 cells; type: ADME, cell-based; details: Caco-2
# [2] = Volume of distribution at steady state in iv dosed rat; type: ADME, organism-based; details: in vivo, read-out: Vdss
# [3] = Oral bioavailability in dog at 10 mg/kg; type: ADME, organism-based, Canis lupus familiaris; details: in vivo
# [4] = Oral bioavailability in mouse at 10 mg/kg; type: ADME, organism-based; details: in vivo
# [5] = Oral bioavailability in rat at 10 mg/kg; type: ADME, organism-based; details: in vivo
Papp A→B [1] [×10⁻⁶ cm/s],Vd [2] [L/kg],bioavailability [3] [%],bioavailability [4] [%],bioavailability [5] [%],SMILES
11,,,,,CC1(C)[C@@H](O)C[C@H]1Nc1nc(NCc2cncnc2OCC(F)F)ncc1C#N
36,,,,,CC(C)(F)c1ncncc1CNc1ncc(C#N)c(N[C@@H]2C[C@H](O)C2(C)C)n1
,27.7,,,,CC1(C)CC(Nc2cc(NCc3cnccc3C(F)(F)F)ncc2C#N)CC(C)(C)N1
27,,46,17,66,CC(F)(F)COc1ncncc1CNc1ncc(C#N)c(N[C@@H]2CC[C@H](O)C(C)(C)C2)n1
